Reference: patent US20080200393A1, “Method and Composition For Treating Angiogenesis and For Preventing Cancer Progression and Metastasis Comprising a Prostate Secretory Protein (Psp94) Family Member” (Ambrillia Biopharma Inc., priority 2004, published 2008)
Where no end group is shown, it is not given here.

Assays:
Type in all cases: cell-based
RhoA = RhoA gene and protein expression in U-87 cells (Western blot, RT-PCR); conditions: U-87, 300 ug/ml, 48 hrs
Method: Specific manipulation of the GTPase Rho activity can be used to suppress or enhance the organizational behaviour of endothelial cells as well as it can restrict cancer cells proliferation. In particular, RhoA mediates cell contractility by organizing actin filaments which consequently regulates cell migration. […] Tests were carried out in order to determine whether the PCK3145 derivative affected RhoA gene and protein expression. U-87 cells were either treated with the PCK3145 derivative (300 ug/ml, 48 hrs). Results of this experiment confirm that the PCK3145 derivative induced endogenous RhoA protein expression in U-87 cells as assessed by Western blotting (FIG. 11A, FIG. 11C).

VEGFR-2 = target: T1, VEGFR-2 (Homo sapiens, UniProt P35968); assay: VEGF-induced VEGFR-2 phosphorylation in HUVEC (immunoprecipitation, Western blot)
T1 construct: host or cells: HUVEC
Method: Immunoprecipitation and immunoblotting procedures. After treatment, cells were washed once with phosphate-buffered saline (PBS) containing 1 mM sodium orthovanadate and were incubated in the same medium for 1 h at 4° C. The cells were solubilized on ice in lysis buffer (150 mM NaCl, 10 mM Tris-HCl, pH 7.4, 1 mM EDTA, 1 mM EGTA, 0.5% Nonidet P-40, 1% Triton X-100) containing 1 mM sodium orthovanadate. The cells were then scraped from the culture dishes and the resulting lysates were clarified by centrifugation at 10,000 g for 10 min; Protein concentrations were determined using the micro bicinchoninic acid method (Pierce). For immunoprecipitation studies, lysates were clarified by a 1 h incubation at 4° C. with a mixture of Protein A/Protein G Sepharose beads. After removal of the Sepharose beads by low-speed centrifugation, identical amounts of protein (200 μg) from each sample were transferred to fresh tubes and incubated in lysis buffer overnight at 4° C. in the presence of 2 μg/ml of specific antibodies. Immunocomplexes were collected by incubating the mixture with 25 μl (50% suspension) of Protein A- (rabbit primary antibody) or Protein G- (mouse primary antibody) Sepharose beads, for 2 h. Nonspecifically-bound material was removed by washing the beads three times in 1 ml of lysis buffer containing 1 mM sodium orthovanadate, and bound material was solubilized in 25 μl of two-fold concentrated Laemmli sample buffer (125 mM Tris-HCl (pH 6.8), 20% glycerol, 4% SDS, 10% β-mercaptoethanol, and 0.00125% bromphenol blue), boiled 5 min, and resolved by SDS-PAGE. […] The immunoreactive bands were quantified by scanning densitometry (Molecular Dynamics).
The multifunctionality of VEGF at the cellular level results from its ability to initiate a diverse, complex and integrated network of signaling pathways via its major receptor, VEGFR-2. […] After each treatment, equal amounts of protein were immunoprecipitated with anti-VEGFR-2 polyclonal antibodies and analysed by Western blotting.

U-87 cells [1] = assay: U-87 cell adhesion to hyaluronic acid; conditions: U-87, 300 ug/ml, 48 hrs; adhesion 3 hours; three independent experiments
Method: ECM recognition is a crucial event in the cell adhesion processes involved in tumor progression. This process is mediated and regulated through specialized cell surface receptors or integrins. […] U-87 cells were treated with the PCK3145 derivative (300 ug/ml, 48 hrs), trypsinised, counted, and seeded on wells coated with 10 ug/ml BSA (bovine serum albumin) or HA. Cells were allowed to adhere for 3 hours. Three independent experiments were performed. […] One such potential intracellular protein is the GTPase RhoA, which is likely to mediate mechanisms regulating cytoskeletal morphogenesis.

U-87 cells [2] = assay: U-87 cell migration on hyaluronic acid; conditions: 300 ug/ml, 48 hrs pretreatment; HA-coated filters, 2 hours
Method: The biological activity of a desired polypeptide may further be determined using migration assays. U-87 cells are treated with a polypeptide of the present invention (e.g., any PCK3145 derivative, fragment, analog, such as for example, any one of or combinations of SEQ ID NOs.: 9 to 98). The treated cells are trypsinised, counted, and seeded on HA-coated filters inserted in modified Boyden Chambers as described herein or in the art. Cell migration is allowed to proceed for 2 hours at 37° C. Filters are then stained for cells that have migrated through the filter. A decreased basal U-87 cell migration observed in cells treated with a polypeptide of the present invention is indicative of a biologically active polypeptide (i.e., a biologically active PCK3145 derivative, fragment, analog).
Migration/invasion of cancer cells is a key event in tumor metastasis. In vitro, this process can be reconstituted by plating cells onto ECM-coated filters inserted in modified Boyden chemotactic chambers. The effect of the PCK3145 derivative can be monitored by the number of cells that had migrated comparatively to untreated control cells. […] U-87 cells were treated with the PCK3145 derivative (300 ug/ml, 48 hrs), trypsinised, counted, and seeded on HA-coated filters inserted in modified Boyden Chambers. […]

ERK = assay: VEGF-induced ERK phosphorylation in BAEC; conditions: BAEC (not shown)

T1 sequence (P35968 20-1356): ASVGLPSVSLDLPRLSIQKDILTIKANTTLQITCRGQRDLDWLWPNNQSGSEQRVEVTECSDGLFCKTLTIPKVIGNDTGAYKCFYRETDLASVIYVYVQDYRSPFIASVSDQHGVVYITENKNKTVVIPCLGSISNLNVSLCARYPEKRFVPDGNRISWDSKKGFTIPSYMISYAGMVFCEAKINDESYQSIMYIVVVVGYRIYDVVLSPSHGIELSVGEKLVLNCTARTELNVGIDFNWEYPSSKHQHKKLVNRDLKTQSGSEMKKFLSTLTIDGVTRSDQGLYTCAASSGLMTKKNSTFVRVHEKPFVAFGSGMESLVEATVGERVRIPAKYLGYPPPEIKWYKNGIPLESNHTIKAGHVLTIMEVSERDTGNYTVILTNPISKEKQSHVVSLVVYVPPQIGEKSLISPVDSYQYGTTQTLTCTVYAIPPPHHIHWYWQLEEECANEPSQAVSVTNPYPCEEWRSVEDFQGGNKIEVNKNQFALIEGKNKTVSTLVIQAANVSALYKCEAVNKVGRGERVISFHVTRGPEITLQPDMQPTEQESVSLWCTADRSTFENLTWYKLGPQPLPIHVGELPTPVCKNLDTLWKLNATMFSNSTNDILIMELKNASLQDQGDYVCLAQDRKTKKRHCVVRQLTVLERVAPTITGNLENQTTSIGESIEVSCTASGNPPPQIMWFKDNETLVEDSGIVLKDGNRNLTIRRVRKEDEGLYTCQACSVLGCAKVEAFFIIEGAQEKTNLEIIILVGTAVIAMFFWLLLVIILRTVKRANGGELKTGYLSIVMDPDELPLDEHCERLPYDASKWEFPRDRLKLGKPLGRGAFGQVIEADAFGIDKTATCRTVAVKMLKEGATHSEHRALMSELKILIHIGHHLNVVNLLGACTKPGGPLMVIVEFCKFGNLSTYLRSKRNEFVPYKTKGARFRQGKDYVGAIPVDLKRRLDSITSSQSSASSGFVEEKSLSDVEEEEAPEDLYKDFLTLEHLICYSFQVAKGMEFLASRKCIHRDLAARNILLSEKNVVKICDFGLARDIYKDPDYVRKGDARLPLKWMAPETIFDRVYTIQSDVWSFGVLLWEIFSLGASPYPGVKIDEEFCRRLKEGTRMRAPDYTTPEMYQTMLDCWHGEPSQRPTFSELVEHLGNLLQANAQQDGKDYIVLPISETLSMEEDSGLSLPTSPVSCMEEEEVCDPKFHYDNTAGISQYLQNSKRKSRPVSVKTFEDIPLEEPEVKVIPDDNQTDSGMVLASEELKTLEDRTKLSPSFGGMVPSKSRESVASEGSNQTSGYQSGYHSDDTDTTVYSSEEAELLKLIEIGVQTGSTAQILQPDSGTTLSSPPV

With “EWQTDNCETCTCYET (cysteine pairing not given here) [PCK3145 derivative, PCK3145 derivative with acetylaminomethyl groups on the three cysteines]” the “RhoA gene expression (RT-PCR)” value (RhoA) was “paralleled that of its gene expression”, the “endogenous RhoA protein expression (Western blotting)” value (RhoA) was “induced” and the “phosphorylation of VEGFR-2 induced by VEGF, dose dependence” value (VEGFR-2) was “dose-dependent”. The “phosphorylation of VEGFR-2 induced by VEGF” value (VEGFR-2; 300 μg/ml, 24 h) was “inhibited”, the “diminution of cell adhesion on HA” value (U-87 cells [1]) was 45-76% and the “decrease of basal U-87 cell migration” value (U-87 cells [2]) was “approximately 3 fold”. For the same sequence, the “ERK phosphorylation induced by VEGF” value (ERK) was “inhibitory effect was confirmed”.
